In brackets after ≈: the same amount, converted by molar mass.
Tests used:
[1] = molecular target: cKIT (Homo sapiens, UniProt P10721); assay: KIT-WT LanthaScreen binding assay (Kd); details: single eight-point titrations, TR-FRET LanthaScreen Binding Assay; R^2 of fit in parentheses; read-out: Enzymatic Assay KIT (Kd)
Description: The TR-FRET-based LanthaScreen Binding Assay was performed to determine Kd values of synthesized derivatives against cKIT.
Subsequently, 8 µL of kinase anti-GST antibody mixture was added, followed by incubation at 4 °C for 30 min in a pre-cooled, humidified box to minimize edge effects. The reaction was initiated by adding 5 µL of tracer working solution and mixed on a Bioshake 5000 microplate shaker (Q Instruments, Jena, Germany). […] Kd values were calculated from sigmoidal dose-response curves using Scigilian Analyze software version 5.8.5.15 (Scigilian, Montreal, QC, Canada).

[2] = Kinetic solubility; format: physicochemical; details: aqueous buffer, kinetic from dmso stock; spectrophotometric, pH 7.4 in HEPES buffer
Description: (§1) The aqueous solubility of the compounds and metabolic stability under oxidative conditions was performed as described previously.

[3] = Microsomal stability, human liver microsomes; format: in vitro ADME; details: human liver microsome
Description: as §1

[4] = test system: panel of 50 kinases; assay: Kinase panel selectivity; format: biochemical; details: 1 μM
Description: To further evaluate potential off-target activity, compound 14c was screened against a panel of 50 kinases at a concentration of 1 μM. […] Inhibitor selectivity can be quantified using the selectivity score (S-score), which assumes that low inhibitory activity is clinically irrelevant. The S-score is calculated by dividing the number of kinases inhibited above a defined threshold by the total number of kinases tested. […] Further details on the selectivity data can be found in SI (Table S1). […]
(§2) Ta b l e S 1. Inhibition (%) by compound 14c towards di7erent kinases. Values are average of two
(§3) measurements at 1000 nM test concentration. The ATP concentration was equal to KM.
(§4) Kinase ATP conc. % inhibition

[5] = molecular target: ABL1 (Homo sapiens, UniProt P00519); assay: Kinase panel; format: biochemical
Description: as §2, §3, §4

[6] = molecular target: ABL2 (Homo sapiens, UniProt P42684); assay: Kinase panel; format: biochemical
Description: as §2, §3, §4

[7] = molecular target: AXL (Homo sapiens, UniProt P30530); assay: Kinase panel; format: biochemical
Description: as §2, §3, §4

[8] = molecular target: Aurora A (Homo sapiens, UniProt O14965); assay: Kinase panel; format: biochemical
Description: as §2, §3, §4

[9] = molecular target: Aurora B (Homo sapiens, UniProt Q96GD4); assay: Kinase panel; format: biochemical
Description: as §2, §3, §4

[10] = molecular target: BLK (Homo sapiens, UniProt P51451); assay: Kinase panel; format: biochemical
Description: as §2, §3, §4

[11] = molecular target: BTK (Homo sapiens, UniProt Q06187); assay: Kinase panel; format: biochemical
Description: as §2, §3, §4

[12] = molecular target: CDK1 (Homo sapiens, UniProt P06493); assay: Kinase panel; format: biochemical
Description: as §2, §3, §4

[13] = molecular target: CHEK1 (Homo sapiens, UniProt O14757); assay: Kinase panel; format: biochemical
Description: as §2, §3, §4

[14] = molecular target: CLK1 (Homo sapiens, UniProt P49759); assay: Kinase panel; format: biochemical
Description: as §2, §3, §4

[15] = molecular target: CSF1R (Homo sapiens, UniProt P07333); assay: Kinase panel; format: biochemical
Description: as §2, §3, §4

[16] = molecular target: DYRK1A (Homo sapiens, UniProt Q13627); assay: Kinase panel; format: biochemical
Description: as §2, §3, §4

[17] = molecular target: EGFR (Homo sapiens, UniProt P00533); assay: Kinase panel; format: biochemical
Description: as §2, §3, §4

[18] = molecular target: EPHA2 (Homo sapiens, UniProt P29317); assay: Kinase panel; format: biochemical
Description: as §2, §3, §4

[19] = molecular target: ERBB2 (Homo sapiens, UniProt P04626); assay: Kinase panel; format: biochemical
Description: as §2, §3, §4

[20] = molecular target: ERBB4 (Homo sapiens, UniProt Q15303); assay: Kinase panel; format: biochemical
Description: as §2, §3, §4

[21] = molecular target: FLT1 (Homo sapiens, UniProt P17948); assay: Kinase panel; format: biochemical
Description: as §2, §3, §4

[22] = molecular target: FLT3 (Homo sapiens, UniProt P36888); assay: Kinase panel; format: biochemical
Description: as §2, §3, §4

[23] = molecular target: FLT4 (Homo sapiens, UniProt P35916); assay: Kinase panel; format: biochemical
Description: as §2, §3, §4

[24] = molecular target: FRAP1 (Homo sapiens, UniProt P42345); assay: Kinase panel; format: biochemical
Description: as §2, §3, §4

[25] = molecular target: FYN (Homo sapiens, UniProt P06241); assay: Kinase panel; format: biochemical
Description: as §2, §3, §4

[26] = molecular target: HCK (Homo sapiens, UniProt P08631); assay: Kinase panel; format: biochemical
Description: as §2, §3, §4

[27] = molecular target: ITK (Homo sapiens, UniProt Q08881); assay: Kinase panel; format: biochemical
Description: as §2, §3, §4

[28] = molecular target: JAK1 (Homo sapiens, UniProt P23458); assay: Kinase panel; format: biochemical
Description: as §2, §3, §4

[29] = molecular target: LTK (Homo sapiens, UniProt P29376); assay: Kinase panel; format: biochemical
Description: as §2, §3, §4

[30] = molecular target: LYN A (Homo sapiens, UniProt P07948); assay: Kinase panel; format: biochemical
Description: as §2, §3, §4

[31] = molecular target: LYN B (Homo sapiens, UniProt P07948); assay: Kinase panel; format: biochemical
Description: as §2, §3, §4

[32] = molecular target: MET (Homo sapiens, UniProt P08581); assay: Kinase panel; format: biochemical
Description: as §2, §3, §4

[33] = molecular target: PAK1 (Homo sapiens, UniProt Q13153); assay: Kinase panel; format: biochemical
Description: as §2, §3, §4

[34] = molecular target: PDGFRB (Homo sapiens, UniProt P09619); assay: Kinase panel; format: biochemical; details: 1000 nM test concentration, ATP Km app, average of two measurements
Description: as §2, §3, §4

[35] = molecular target: PLK1 (Homo sapiens, UniProt P53350); assay: Kinase panel; format: biochemical
Description: as §2, §3, §4

[36] = molecular target: TEK (Homo sapiens, UniProt Q02763); assay: Kinase panel; format: biochemical
Description: as §2, §3, §4

Sequence of PDGFRB (P09619 33-1106, species assumed): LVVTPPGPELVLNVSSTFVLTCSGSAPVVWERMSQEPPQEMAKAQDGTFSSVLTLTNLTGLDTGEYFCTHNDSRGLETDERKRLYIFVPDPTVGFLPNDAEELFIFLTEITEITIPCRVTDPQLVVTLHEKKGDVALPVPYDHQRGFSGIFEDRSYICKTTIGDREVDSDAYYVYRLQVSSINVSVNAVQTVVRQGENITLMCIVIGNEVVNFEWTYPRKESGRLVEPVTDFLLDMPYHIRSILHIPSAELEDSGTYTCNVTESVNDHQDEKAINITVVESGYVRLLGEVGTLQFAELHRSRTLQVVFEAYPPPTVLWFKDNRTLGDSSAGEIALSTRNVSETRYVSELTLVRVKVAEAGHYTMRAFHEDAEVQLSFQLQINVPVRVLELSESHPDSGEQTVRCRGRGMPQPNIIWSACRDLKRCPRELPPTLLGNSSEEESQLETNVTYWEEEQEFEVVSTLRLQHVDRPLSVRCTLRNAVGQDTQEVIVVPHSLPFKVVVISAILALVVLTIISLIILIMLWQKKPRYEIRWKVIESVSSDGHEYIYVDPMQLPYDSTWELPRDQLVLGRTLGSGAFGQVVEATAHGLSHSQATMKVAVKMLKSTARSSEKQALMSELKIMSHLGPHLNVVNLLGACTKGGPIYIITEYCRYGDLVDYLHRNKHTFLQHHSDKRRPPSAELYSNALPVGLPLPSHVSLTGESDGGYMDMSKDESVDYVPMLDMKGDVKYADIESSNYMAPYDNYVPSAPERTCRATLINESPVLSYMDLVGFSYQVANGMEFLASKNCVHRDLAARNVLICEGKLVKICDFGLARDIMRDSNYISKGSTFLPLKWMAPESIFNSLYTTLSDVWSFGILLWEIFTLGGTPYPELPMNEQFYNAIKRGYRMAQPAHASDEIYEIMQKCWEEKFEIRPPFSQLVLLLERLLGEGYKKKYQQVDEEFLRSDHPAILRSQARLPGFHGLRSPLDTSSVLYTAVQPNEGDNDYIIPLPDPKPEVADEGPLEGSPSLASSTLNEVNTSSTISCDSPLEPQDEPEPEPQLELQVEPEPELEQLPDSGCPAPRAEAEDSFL
Sequence of ERBB2 (P04626 23-1255, species assumed): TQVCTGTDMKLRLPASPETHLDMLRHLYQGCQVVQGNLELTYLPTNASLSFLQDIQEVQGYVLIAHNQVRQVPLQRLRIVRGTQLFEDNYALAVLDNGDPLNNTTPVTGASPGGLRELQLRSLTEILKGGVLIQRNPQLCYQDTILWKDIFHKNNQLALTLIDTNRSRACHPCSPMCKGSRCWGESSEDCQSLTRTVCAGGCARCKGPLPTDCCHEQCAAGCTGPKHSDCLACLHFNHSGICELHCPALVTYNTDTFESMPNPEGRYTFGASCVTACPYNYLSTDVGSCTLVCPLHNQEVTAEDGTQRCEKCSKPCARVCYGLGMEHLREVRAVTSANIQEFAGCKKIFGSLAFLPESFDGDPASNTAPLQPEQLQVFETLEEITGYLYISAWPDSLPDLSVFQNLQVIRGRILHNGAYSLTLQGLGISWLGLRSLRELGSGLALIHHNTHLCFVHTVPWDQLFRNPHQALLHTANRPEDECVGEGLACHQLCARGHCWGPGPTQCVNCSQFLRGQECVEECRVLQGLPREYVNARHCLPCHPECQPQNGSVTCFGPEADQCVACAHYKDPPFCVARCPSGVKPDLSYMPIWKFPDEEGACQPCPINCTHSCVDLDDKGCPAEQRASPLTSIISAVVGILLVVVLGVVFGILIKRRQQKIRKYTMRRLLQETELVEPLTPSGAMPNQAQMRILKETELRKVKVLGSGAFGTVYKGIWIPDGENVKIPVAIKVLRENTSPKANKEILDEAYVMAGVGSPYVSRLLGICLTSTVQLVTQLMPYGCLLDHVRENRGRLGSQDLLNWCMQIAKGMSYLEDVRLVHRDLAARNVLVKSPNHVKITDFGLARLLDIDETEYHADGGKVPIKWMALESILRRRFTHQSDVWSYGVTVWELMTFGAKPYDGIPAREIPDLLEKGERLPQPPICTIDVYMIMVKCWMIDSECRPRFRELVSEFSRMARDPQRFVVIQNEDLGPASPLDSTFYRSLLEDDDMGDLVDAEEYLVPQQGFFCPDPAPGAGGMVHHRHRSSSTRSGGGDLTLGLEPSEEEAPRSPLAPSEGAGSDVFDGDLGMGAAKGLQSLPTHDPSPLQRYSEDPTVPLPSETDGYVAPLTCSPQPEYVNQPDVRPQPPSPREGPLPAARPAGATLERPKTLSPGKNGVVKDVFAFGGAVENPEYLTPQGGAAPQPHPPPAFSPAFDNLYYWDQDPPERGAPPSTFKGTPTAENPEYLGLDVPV
Sequence of CHEK1 (O14757 whole entry, species assumed): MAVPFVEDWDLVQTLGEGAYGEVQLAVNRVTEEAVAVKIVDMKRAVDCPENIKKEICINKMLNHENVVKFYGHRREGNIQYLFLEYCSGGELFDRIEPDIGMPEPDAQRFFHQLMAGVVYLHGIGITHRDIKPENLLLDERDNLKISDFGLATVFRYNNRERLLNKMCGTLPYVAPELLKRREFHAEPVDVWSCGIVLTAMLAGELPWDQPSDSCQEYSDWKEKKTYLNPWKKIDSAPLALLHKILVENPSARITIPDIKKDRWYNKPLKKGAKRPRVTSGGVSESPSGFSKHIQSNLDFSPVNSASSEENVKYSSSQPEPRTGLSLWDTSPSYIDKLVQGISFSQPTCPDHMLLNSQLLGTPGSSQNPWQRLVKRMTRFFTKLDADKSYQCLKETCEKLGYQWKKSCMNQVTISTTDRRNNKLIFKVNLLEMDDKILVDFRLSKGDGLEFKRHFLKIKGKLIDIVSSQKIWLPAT
Sequence of JAK1 (P23458 whole entry, species assumed): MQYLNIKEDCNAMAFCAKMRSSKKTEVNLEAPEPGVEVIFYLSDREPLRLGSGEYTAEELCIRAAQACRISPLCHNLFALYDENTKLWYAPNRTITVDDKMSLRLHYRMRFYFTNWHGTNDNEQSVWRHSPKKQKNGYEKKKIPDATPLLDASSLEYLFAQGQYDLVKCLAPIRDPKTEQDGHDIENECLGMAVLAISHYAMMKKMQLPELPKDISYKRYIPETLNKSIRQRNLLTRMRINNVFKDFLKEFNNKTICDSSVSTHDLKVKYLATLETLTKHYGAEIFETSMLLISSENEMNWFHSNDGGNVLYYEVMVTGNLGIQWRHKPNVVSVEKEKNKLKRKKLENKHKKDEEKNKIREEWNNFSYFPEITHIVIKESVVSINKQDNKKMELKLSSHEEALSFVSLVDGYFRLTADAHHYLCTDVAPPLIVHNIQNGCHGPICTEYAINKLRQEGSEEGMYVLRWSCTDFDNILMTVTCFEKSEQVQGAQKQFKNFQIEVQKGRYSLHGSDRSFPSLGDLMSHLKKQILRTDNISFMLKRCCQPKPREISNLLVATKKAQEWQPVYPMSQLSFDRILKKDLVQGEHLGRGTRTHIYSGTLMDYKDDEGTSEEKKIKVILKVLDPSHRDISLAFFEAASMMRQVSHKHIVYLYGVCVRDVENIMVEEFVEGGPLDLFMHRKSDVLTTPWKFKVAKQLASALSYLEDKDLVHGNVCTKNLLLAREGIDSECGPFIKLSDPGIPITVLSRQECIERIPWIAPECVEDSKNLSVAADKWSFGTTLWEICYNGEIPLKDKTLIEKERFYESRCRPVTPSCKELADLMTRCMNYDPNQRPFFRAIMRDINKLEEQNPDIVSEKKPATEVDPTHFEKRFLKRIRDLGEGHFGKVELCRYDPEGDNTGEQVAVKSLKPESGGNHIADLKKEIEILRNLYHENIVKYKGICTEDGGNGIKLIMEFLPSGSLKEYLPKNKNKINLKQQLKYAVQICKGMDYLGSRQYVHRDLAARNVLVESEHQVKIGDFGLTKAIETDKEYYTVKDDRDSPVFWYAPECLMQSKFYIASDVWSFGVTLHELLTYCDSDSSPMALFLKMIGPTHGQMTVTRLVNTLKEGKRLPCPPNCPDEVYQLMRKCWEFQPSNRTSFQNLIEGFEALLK
Sequence of CLK1 (P49759 whole entry): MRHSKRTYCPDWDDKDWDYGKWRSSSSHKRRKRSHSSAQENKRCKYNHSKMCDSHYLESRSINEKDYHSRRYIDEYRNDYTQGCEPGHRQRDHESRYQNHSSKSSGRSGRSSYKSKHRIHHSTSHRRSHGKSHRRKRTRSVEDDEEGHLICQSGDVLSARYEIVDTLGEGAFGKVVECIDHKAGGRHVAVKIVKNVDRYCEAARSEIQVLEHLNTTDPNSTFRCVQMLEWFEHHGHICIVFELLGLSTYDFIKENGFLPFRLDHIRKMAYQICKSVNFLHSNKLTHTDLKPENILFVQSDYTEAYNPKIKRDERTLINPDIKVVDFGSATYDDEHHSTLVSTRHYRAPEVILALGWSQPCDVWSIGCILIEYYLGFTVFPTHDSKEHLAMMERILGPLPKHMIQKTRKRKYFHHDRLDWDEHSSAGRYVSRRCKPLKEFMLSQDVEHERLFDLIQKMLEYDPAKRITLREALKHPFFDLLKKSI
Sequence of PLK1 (P53350 whole entry, species assumed): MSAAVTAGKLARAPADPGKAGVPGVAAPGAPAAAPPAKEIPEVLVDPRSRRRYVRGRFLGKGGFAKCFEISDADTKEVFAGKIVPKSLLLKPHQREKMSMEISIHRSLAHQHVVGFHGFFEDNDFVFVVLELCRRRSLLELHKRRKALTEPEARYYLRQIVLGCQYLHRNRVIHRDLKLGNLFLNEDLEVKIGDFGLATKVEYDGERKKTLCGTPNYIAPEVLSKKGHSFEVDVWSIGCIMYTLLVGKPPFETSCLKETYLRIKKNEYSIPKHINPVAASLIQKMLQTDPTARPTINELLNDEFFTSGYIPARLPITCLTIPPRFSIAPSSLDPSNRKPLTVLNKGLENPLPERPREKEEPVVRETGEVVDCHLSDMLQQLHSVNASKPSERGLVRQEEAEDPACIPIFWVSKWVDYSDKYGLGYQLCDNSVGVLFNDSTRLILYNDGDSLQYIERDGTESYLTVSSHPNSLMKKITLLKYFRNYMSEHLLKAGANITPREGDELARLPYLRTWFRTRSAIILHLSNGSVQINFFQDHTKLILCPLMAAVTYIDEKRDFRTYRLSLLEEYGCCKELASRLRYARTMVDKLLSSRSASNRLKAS

Cc1cccc(CN(C)c2ncnc3[nH]c(-c4ccc(NCc5ccc(C(F)(F)F)nc5)nc4)cc23)c1 [Compound 14c, N-Methyl-N-(3-methylbenzyl)-6-(6-(((6-(trifluoromethyl)pyridin-3-yl)methyl)amino)pyridin-3-yl)-7H-pyrrolo[2,3-d]pyrimidin-4-amine]
Kd [1]: > 1000 nM
solubility kinetic [2]: 0.7 µM (≈ 0.352 µg/mL)
HLM in vitro intrinsic clearing [3]: 77 µL/min/mg
Selectivity towards CSF1R in kinase panel (in words) [4]: high selectivity
inhibition at 1 µM [5]: 71%
inhibition at 1 µM [6]: 75%
inhibition at 1 µM [7]: 4%
inhibition at 1 µM [8]: 7%
inhibition at 1 µM [9]: 34%
inhibition at 1 µM [10]: 19%
inhibition at 1 µM [11]: 13%
inhibition at 1 µM [12]: 12%
inhibition at 1 µM [13]: 11%
inhibition at 1 µM [14]: 3%
inhibition at 1 µM [15]: 95%
inhibition at 1 µM [16]: 4%
inhibition at 1 µM [17]: 57%
inhibition at 1 µM [18]: 23%
inhibition at 1 µM [19]: 9%
inhibition at 1 µM [20]: 2%
inhibition at 1 µM [21]: 5%
inhibition at 1 µM [22]: 26%
inhibition at 1 µM [23]: 2%
inhibition at 1 µM [24]: -5%
inhibition at 1 µM [25]: 16%
inhibition at 1 µM [26]: 16%
inhibition at 1 µM [27]: 8%
inhibition at 1 µM [28]: -5%
inhibition at 1 µM [29]: 15%
inhibition at 1 µM [30]: 18%
inhibition at 1 µM [31]: 26%
inhibition at 1 µM [32]: 10%
inhibition at 1 µM [33]: 9%
inhibition at 1 µM [34]: 9%
% inhibition PDGFRB ([34]; 1 µM): 8%
inhibition at 1 µM [35]: 7%
inhibition at 1 µM [36]: 8%

Reference: publication PMC12196264, “Design and Synthesis of Pyridine-Based Pyrrolo[2,3-d]pyrimidine Analogs as CSF1R Inhibitors: Molecular Hybridization and Scaffold Hopping Approach” (Pharmaceuticals, 2025)
